Results on 52 compounds are retold here after patent US9458113B2 (Boehringer Ingelheim International GmbH, priority 2014, dated 2016).

Chain of Human neutrophil elastase (P08246 30-247): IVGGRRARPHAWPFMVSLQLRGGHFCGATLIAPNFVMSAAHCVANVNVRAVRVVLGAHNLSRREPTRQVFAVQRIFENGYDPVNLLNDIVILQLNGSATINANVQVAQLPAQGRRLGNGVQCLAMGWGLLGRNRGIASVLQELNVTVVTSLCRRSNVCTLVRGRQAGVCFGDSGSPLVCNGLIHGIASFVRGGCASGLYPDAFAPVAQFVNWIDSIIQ

This assay concerns the target Human neutrophil elastase (Homo sapiens (Human), UniProt P08246). As to the kind of experiment: Human Neutrophil Elastase Assay. It is filed as biochemical. The conditions noted are these: substrate MeOSuc-Ala-Ala-Pro-Val-AMC 250 μM, pH 7.5.
Protocol: The following buffers were used: Compound buffer: 100 mM Tris, 500 mM NaCl, adjusted to pH 7.5; Assay buffer: 100 mM Tris, 500 mM NaCl, adjusted to pH 7.5, containing 0.01% BSA.
Assay conditions: Test compounds were prediluted in DMSO and subsequently in compound buffer (5% DMSO final). […] After inactivation of the enzyme, fluorescence intensities were measured at 380 nm excitation and 460 nm emission wavelengths.
Each plate contains wells with a high value control (DMSO+enzyme+substrate) and wells with a low value control (DMSO+inactivated enzyme+substrate). IC50 values were estimated using a sigmoidal concentration response curve with variable slope. Means of low values were taken as 0%, means of high values as 100%.
In the case of `CN1C(=O)N(c2cccc(C(F)(F)F)c2)C2=C(C(=O)CC2)C1c1ccc(C#N)cc1CN1CCOCC1` (stereo not shown) [Example 9, 4-[3-Methyl-2,5-dioxo-1-(3-trifluoromethyl-phenyl)-2,3,4,5,6,7-hexahydro-1H-cyclopentapyrimidin-4-yl]-3-morpholin-4-ylmethyl-benzonitrile], it took 1.4 nM to reach half-maximal inhibition (IC50). With `CN(Cc1ccnn1C)C(=O)c1cc(C#N)ccc1C1C2=C(CCC2=O)N(c2cccc(C(F)(F)F)c2)C(=O)N1C` (stereo not shown) [Example 1.71] the figure was < 1 nM; with `CN1CCN(C(=O)c2cc(C#N)ccc2[C@@H]2C3=C(CCC3=O)N(c3cccc(C(F)(F)F)c3)C(=O)N2C)CC1` [Example 2.4], 3.1 nM; with `CN1C(=O)N(c2cccc(C(F)(F)F)c2)C2=C(C(=O)CC2)C1c1ccc(C#N)cc1C(=O)N1Cc2ccncc2C1` (stereo not shown) [Example 1.63], 3.9 nM.

Consider `CN1C(=O)N(c2cccc(C(F)(F)F)c2)C2=C(C(=O)CC2)C1c1ccc(C#N)cc1C(=O)NCc1ccoc1` (stereo not shown) [Example 1.37], for which inhibition was half-maximal at 3.4 nM (IC50). The value for `CN(Cc1ccon1)C(=O)c1cc(C#N)ccc1C1C2=C(CCC2=O)N(c2cccc(C(F)(F)F)c2)C(=O)N1C` (stereo not shown) [Example 1.59] was 1.1 nM. The value for `COCCNC(=O)c1cc(C#N)ccc1C1C2=C(CCC2=O)N(c2cccc(C(F)(F)F)c2)C(=O)N1C` (stereo not shown) [Example 1.14] was 6.5 nM; that for `CN(C)C(=O)c1cc(C#N)ccc1C1C2=C(CCC2=O)N(c2ccnc(C(F)(F)F)c2)C(=O)N1C` (stereo not shown) [Example 8.2] was 16.8 nM; that for `CN1C(=O)N(c2ccnc(C(F)(F)F)c2)C2=C(C(=O)CC2)C1c1ccc(C#N)cc1C(=O)N1CCCC1` (stereo not shown) [Example 8.3] was 32.8 nM. The value for `Cc1noc(-c2cc(C#N)ccc2C2C3=C(CCC3=O)N(c3cccc(C(F)(F)F)c3)C(=O)N2C)n1` (stereo not shown) [Example 13.2, 4-[3-Methyl-2,5-dioxo-1-(3-trifluoromethyl-phenyl)-2,3,4,5,6,7-hexahydro-1H-cyclopentapyrimidin-4-yl]-3-(3-methyl-[1,2,4]oxadiazol-5-yl)-benzonitrile] was 2.8 nM; that for `CN1C(=O)N(c2cccc(C(F)(F)F)c2)C2=C(C(=O)CC2)C1c1ccc(C#N)cc1C(=O)N1CC[C@@H](N)C1` (stereo partly shown) [Example 4.8] was 5.9 nM; that for `CN1C(=O)N(c2cccc(C(F)(F)F)c2)C2=C(C(=O)CC2)C1c1ccc(C#N)cc1C(=O)NCCS(C)(=O)=O` (stereo not shown) [Example 1.26] was 4.6 nM. In the case of `CN1C(=O)N(c2cccc(C(F)(F)F)c2)C2=C(C(=O)CC2)C1c1ccc(C#N)cc1-c1ccc2c(cnn2C)c1` (stereo not shown) [Example 11.12], the IC50 came out at 7.9 nM.

`CN1C(=O)N(c2cccc(C(F)(F)F)c2)C2=C(C(=O)CC2)C1c1ccc(C#N)cc1-c1cnco1` (stereo not shown) [Example 10, 4-[3-Methyl-2,5-dioxo-1-(3-trifluoromethyl-phenyl)-2,3,4,5,6,7-hexahydro-1H-cyclopentapyrimidin-4-yl]-3-oxazol-5-yl-benzonitrile] displayed a concentration for half-maximal inhibition (IC50) of 1.2 nM.

As for `CN1C(=O)N(c2cccc(C(F)(F)F)c2)C2=C(C(=O)CCC2)C1c1ccc(C#N)cc1-c1ccoc1` (stereo not shown) [Example 15, 3-Furan-3-yl-4-[3-methyl-2,5-dioxo-1-(3-trifluoromethyl-phenyl)-1,2,3,4,5,6,7,8-octahydro-quinazolin-4-yl]-benzonitrile], the midpoint of inhibition, the IC50, lay at 3.2 nM. The value for `CN1C(=O)N(c2cccc(C(F)(F)F)c2)C2=C(C(=O)CC2)C1c1ccc(C#N)cc1C(=O)NCc1cccnc1` (stereo not shown) [Example 1.46] was 3.9 nM; that for `CN1C(=O)N(c2ccnc(C(F)(F)F)c2)C2=C(C(=O)CC2)C1c1ccc(C#N)cc1C1=CCNCC1` (stereo not shown) [Example 18, 4-[3-Methyl-2,5-dioxo-1-(2-trifluoromethyl-pyridin-4-yl)-2,3,4,5,6,7-hexahydro-1H-cyclopentapyrimidin-4-yl]-3-(1,2,3,6-tetrahydro-pyridin-4-yl)-benzonitrile] was 1.7 nM. On to `CN1C(=O)N(c2cccc(C(F)(F)F)c2)C2=C(C(=O)CC2)C1c1ccc(C#N)cc1C1=CCN(C(=O)OC(C)(C)C)C1` (stereo not shown) [Example 11.4, 3-{5-Cyano-2-[3-methyl-2,5-dioxo-1-(3-trifluoromethyl-phenyl)-2,3,4,5,6,7-hexahydro-1H-cyclopentapyrimidin-4-yl]-phenyl}-2,5-dihydro-pyrrole-1-carboxylic acid tert-butyl ester], for which the IC50 was 2.5 nM. This IC50 and that of the compound before are within 1.5-fold of each other. Consider `CN1CCC(NC(=O)c2cc(C#N)ccc2C2C3=C(CCC3=O)N(c3cccc(C(F)(F)F)c3)C(=O)N2C)C1` (stereo not shown) [Example 1.30], for which inhibition was half-maximal at 7.4 nM (IC50). Against the preceding compound, the IC50 is about 3-fold higher. The value for `CN1C(=O)N(c2cccc(C(F)(F)F)c2)C2=C(C(=O)CC2)C1c1ccc(C#N)cc1C(=O)N1CCC1` (stereo not shown) [Example 1.7] was 2.2 nM. With `CN(Cc1ccncc1)C(=O)c1cc(C#N)ccc1C1C2=C(CCC2=O)N(c2cccc(C(F)(F)F)c2)C(=O)N1C` (stereo not shown) [Example 1.65] the figure was 1.7 nM; with `COCCCNC(=O)c1cc(C#N)ccc1C1C2=C(CCC2=O)N(c2cccc(C(F)(F)F)c2)C(=O)N1C` (stereo not shown) [Example 1.20], 5.7 nM; with `CN1C(=O)N(c2cccc(C(F)(F)F)c2)C2=C(C(=O)CC2)C1c1ccc(C#N)cc1-c1ccc2c(ccn2C)c1` (stereo not shown) [Example 11.14], 6 nM.

`CN(C)C(=O)c1cc(C#N)ccc1C1C2=C(CCCC2=O)N(c2cccc(C(F)(F)F)c2)C(=O)N1C` (stereo not shown) [Example 6.4] registered an IC50 of 1.1 nM. `CN1C(=O)N(c2cccc(C(F)(F)F)c2)C2=C(C(=O)CC2)C1c1ccc(C#N)cc1C(=O)NCc1ccn(C)n1` (stereo not shown) [Example 1.53] had an IC50 of 2.2 nM. With `CN1C(=O)N(c2cccc(C(F)(F)F)c2)C2=C(C(=O)CC2)C1c1ccc(C#N)cc1C(=O)N1CCn2ncnc2C1` (stereo not shown) [Example 1.70] the figure was 1.9 nM; with `C#CCNC(=O)c1cc(C#N)ccc1C1C2=C(CCC2=O)N(c2cccc(C(F)(F)F)c2)C(=O)N1C` (stereo not shown) [Example 1.4], 3.7 nM; with `CN1C(=O)N(c2cccc(C(F)(F)F)c2)C2=C(C(=O)CC2)C1c1ccc(C#N)cc1C(=O)NC1COC1` (stereo not shown) [Example 1.12], 5.3 nM. With `CN1C(=O)N(c2cccc(C(F)(F)F)c2)C2=C(C(=O)CC2)C1c1ccc(C#N)cc1C(=O)N[C@H]1C[C@H]1N` (stereo partly shown) [Example 4.14] the figure was 4.9 nM; with `CN1C(=O)N(c2cccc(C(F)(F)F)c2)C2=C(C(=O)CCC2)C1c1ccc(C#N)cc1C(=O)N1CCOCC1` (stereo not shown) [Example 6.1], 2.9 nM. With `CN(Cc1cnn(C)c1)C(=O)c1cc(C#N)ccc1C1C2=C(CCC2=O)N(c2cccc(C(F)(F)F)c2)C(=O)N1C` (stereo not shown) [Example 1.27] the figure was < 1 nM. Compound `CN1C(=O)N(c2cccc(C(F)(F)F)c2)C2=C(C(=O)CC2)C1c1ccc(C#N)cc1C(=O)N1CCN2CCCC2C1` (stereo not shown) [Example 3.3] returned an IC50 of 7.5 nM. The value for `CNC(=O)c1cc(C#N)ccc1C1C2=C(CCC2=O)N(c2ccnc(C(F)(F)F)c2)C(=O)N1C` (stereo not shown) [Example 8.1] was 25 nM; that for `CN1C(=O)N(c2cccc(C(F)(F)F)c2)C2=C(C(=O)CC2)C1c1ccc(C#N)cc1C(=O)NCCCO` (stereo not shown) [Example 1.15] was 5 nM; that for `COc1ccc(-c2cc(C#N)ccc2C2C3=C(CCC3=O)N(c3cccc(C(F)(F)F)c3)C(=O)N2C)cn1` (stereo not shown) [Example 11.13] was 3.9 nM.

Consider `CN1C(=O)N(c2cccc(C(F)(F)F)c2)C2=C(C(=O)CC2)C1c1ccc(C#N)cc1C(=O)NCc1cccnn1` (stereo not shown) [Example 1.50], for which the IC50 is 2.9 nM. The value for `CN1C(=O)N(c2cccc(C(F)(F)F)c2)C2=C(C(=O)CC2)C1c1ccc(C#N)cc1-c1ccn(C)n1` (stereo not shown) [Example 11.1] was 8.7 nM.

With `CN1C(=O)N(c2cccc(C(F)(F)F)c2)C2=C(C(=O)CC2)C1c1ccc(C#N)cc1-c1ccco1` (stereo not shown) [Example 11.8], the concentration for half-maximal inhibition (IC50) came to 3.3 nM. This IC50 is about 2.6-fold lower than that of the compound before. With `CN1C(=O)N(c2cccc(C(F)(F)F)c2)C2=C(C(=O)CC2)C1c1ccc(C#N)cc1C(=O)NCc1cn(C)cn1` (stereo not shown) [Example 1.54] the figure was 6.9 nM. The value for `CNCCN(C)C(=O)c1cc(C#N)ccc1C1C2=C(CCC2=O)N(c2cccc(C(F)(F)F)c2)C(=O)N1C` (stereo not shown) [Example 4.10] was 1.4 nM. With `CN1C(=O)N(c2cccc(C(F)(F)F)c2)C2=C(C(=O)CC2)C1c1ccc(C#N)cc1C(=O)NC1CCS(=O)(=O)C1` (stereo not shown) [Example 1.28] the figure was 4.3 nM; with `CN(C)C(=O)c1cc(C#N)ccc1[C@@H]1C2=C(CCC2=O)N(c2cccc(C(F)(F)F)c2)C(=O)N1C` [Example 2.2], 1.1 nM. Compound `CN1C(=O)N(c2cccc(C(F)(F)F)c2)C2=C(C(=O)CC2)C1c1ccc(C#N)cc1C(=O)N[C@H]1C[C@@H]1N` (stereo partly shown) [Example 4.13] yielded a 50% inhibitory concentration (IC50) of 5.6 nM. Turning to `CN1C(=O)N(c2cccc(C(F)(F)F)c2)C2=C(C(=O)CC2)C1c1ccc(C#N)cc1C(=O)NCc1nnnn1C` (stereo not shown) [Example 1.62], the concentration for half-maximal inhibition (IC50) worked out at 2.5 nM.

In the case of `CN1C(=O)N(c2cccc(C(F)(F)F)c2)C2=C(C(=O)CC2)C1c1ccc(C#N)cc1-c1ccc2occc2c1` (stereo not shown) [Example 11.15], 16 nM corresponded to half-maximal inhibition (IC50).

Compound `CC(C)N1CCN(C(=O)c2cc(C#N)ccc2C2C3=C(CCC3=O)N(c3cccc(C(F)(F)F)c3)C(=O)N2C)CC1` (stereo not shown) [Example 3.4] gave an IC50 of 7.3 nM. In the case of `CN1C(=O)N(c2cccc(C(F)(F)F)c2)C2=C(C(=O)CC2)C1c1ccc(C#N)cc1C(=O)NCC(=O)N1CCOCC1` (stereo not shown) [Example 1.80], 6 nM corresponded to half-maximal inhibition (IC50). The value for `CN1C(=O)N(c2cccc(C(F)(F)F)c2)C2=C(C(=O)CC2)C1c1ccc(C#N)cc1C(=O)NCC#N` (stereo not shown) [Example 1.5] was 3.1 nM; that for `CN(Cc1cncn1C)C(=O)c1cc(C#N)ccc1C1C2=C(CCC2=O)N(c2cccc(C(F)(F)F)c2)C(=O)N1C` (stereo not shown) [Example 1.72] was < 1 nM. Take `CN1C(=O)N(c2cccc(C(F)(F)F)c2)C2=C(C(=O)CC2)C1c1ccc(C#N)cc1-c1ccncc1` (stereo not shown) [Example 11.9]: the IC50 was found to be 1 nM. With `CN1C(=O)N(c2cccc(C(F)(F)F)c2)C2=C(C(=O)CC2)C1c1ccc(C#N)cc1C(=O)N1CCNCC1` (stereo not shown) [Example 4] the figure was 7.5 nM; with `CN1C(=O)N(c2cccc(C(F)(F)F)c2)C2=C(C(=O)CC2)C1c1ccc(C#N)cc1C(=O)NCCO` (stereo not shown) [Example 1.8], 5.7 nM.

The term IC50 denotes the point on the concentration scale where inhibition reaches its midpoint. A low value points to greater potency.
